{"source": "patent US20080181876A1", "about": "“Methods for treating acute and subchronic pain” (priority 2007, published 2008)", "key": {"Sprague-Dawley (CD) rats": {"test_system": "Sprague-Dawley (CD) rats", "experiment": "Rat tail-flick latency test (heat source, 15 second maximum)", "format": "in vivo", "conditions": "for antinociceptive activity (tail-flick latency), administered alone: single agent: morphine 1.2 mg/kg s.c. or ibudilast 50 mg/kg po", "experimental": "Male Sprague-Dawley (CD) rats were acclimated to a room temperature of 79° F. to semi-confined conditions on a heated glass surface (79° F.). On the first day, rats were acclimated to a glass surface for 20-30 minutes. Rats were in chambers made of plexiglass and could move freely in either direction. No stimulus was given on day 1. On day 2, rats were acclimated for 5 minutes, and a high intensity beam of light was directed at each rat tail approximately 4 cm from the tip. The time it took for a rat tail to withdraw from the heat source was recorded as the baseline latent period for tail flick. Three trials were done with 5 minutes between trials for each rat. The light source was moved for the 2nd and 3rd trials one cm caudal and rostral of the original trial to avoid tissue damage. Animals were dosed orally with ibudilast (50 mg/kg in vehicle (10% HCO60+10% PEG in sterile water) and/or 1.2 mg/kg morphine s.c. formulated in saline for injection. Dose volumes were 1 ml/kg for s.c. administrations (i.e. opioid) and 10 ml/kg for p.o. administrations. Animals were dosed and returned to their cages until 5 minutes before each hourly time point, when they were returned to the glass surface and stimulated with the heat source (3 trials/time point). The ibudilast vehicle was also shown not to have analgesic activity and performed like the saline control. Studies were performed at Avigen Inc. under IACUC regulations."}, "Sprague-Dawley rats": {"test_system": "Sprague-Dawley rats", "experiment": "Modified Hargreaves test (high and low intensity), tail and hindpaw withdrawal to heat stimuli", "format": "in vivo, rat", "experimental": "Pathogen-free adult male Sprague-Dawley rats (300-375 g; Harlan Labs, Madison, Wis.) were used in all experiments. Rats were housed in temperature (23±3° C.) and light (12 h: 12 h light:dark cycle; lights on at 0700) controlled rooms with standard rodent chow and water available ad libitum. All procedures were approved by the Institutional Animal Care and Use Committee of the University of Colorado at Boulder. Each study represents an n=6 per group.\nMorphine sulfate and oxycodone hydrochloride were purchased from Sigma (St. Louis, Mo., USA). Morphine and oxycodone were administered subcutaneously at 4 mg/kg in a dose volume of 1 ml/kg in sterile injection normal saline. Ibudilast was supplied by Avigen (Alameda, Calif., USA). Ibudilast was administered intraperitoneally at 7.5 mg/kg in a dose volume of 2.5 ml/kg in 35% PEG: 65% injection saline. Morphine and oxycodone doses reported are as free base concentrations.\nHargreaves tests for analgesia and hyperalgesia. Rats received at least three 60 min habituations to the test environment prior to behavioral testing. Thresholds for behavioral response to heat stimuli applied to the plantar surface of each hindpaw and tail were assessed using a modified Hargreaves test (Hargreaves et al., 1988). All testing was conducted blind with respect to group assignment. Briefly, baseline withdrawal values were calculated from an average of 2 consecutive withdrawal latencies of the tail and the left and the right hindpaws, measured at 15-min intervals. Latencies for the high intensity stimulus at baseline ranged from 2 to 3 s, and a cut-off time of 10 s was imposed to avoid tissue damage. Latencies for the low intensity stimulus at baseline ranged from 6 to 7 s, and a cut-off time of 20 s was imposed to avoid tissue damage. The order of paw and tail testing varied randomly.\nThe analgesic responses were calculated as the % of maximal possible effect\n(Carmody, 1995). For high intensity Hargreaves, a cut off of 10 s was used. For low intensity Hargreaves, a 20 s cut off was employed. Since there is no unilateral paw effect expected (or observed) left and right withdrawal latencies were averaged. Statistical significance for analysis of time courses was assessed using a two-way repeated ANOVA with Bonferroni post hoc test and compared the analgesic responses of active treatments versus their vehicle controls. Area under the curves were analyzed with a students t-test. Significance was set at P<0.05. Calculations were conducted with Excel 2003 SP2 (Microsoft, Redmond, Calif., USA) & Prism 4.03 (GraphPad, San Diego, Calif., USA).\nFollowing baseline withdrawal latency assessments (−45 min), animals received ibudilast or vehicle and were tested again 10 min later to determine if ibudilast or vehicle had any effect on withdrawal latencies. At this time (time 0), the animals received a subcutaneous saline injection (1 ml/kg) to control for conditions in Experiment 2 (see below). Animals were then tested every 10 minutes for 80 min alternating high and low intensity Hargreaves tests.\nFollowing baseline withdrawal latency assessments (−45 min), animals received ibudilast or vehicle (−30 min) and were tested again at −10 min. At time 0, animals received a subcutaneous morphine injection (4 mg/kg in a dose volume of 1 ml/kg in injection saline) and were tested every 10 minutes for 230 min alternating high and low intensity Hargreaves tests. […]"}}, "note": "“Also recorded” adds a separate entry of the source.", "data": [{"smiles": "CN1CC[C@]23c4c5ccc(O)c4O[C@H]2[C@@H](O)C=C[C@H]3[C@H]1C5", "note": "[morphine]", "values": [{"measurement": "antinociceptive activity (tail-flick latency), administered alone", "setting": "Sprague-Dawley (CD) rats", "result": "weak antinociceptive activity"}]}, {"smiles": "CC(C)C(=O)c1c(C(C)C)nn2ccccc12", "note": "[ibudilast, 3-isobutyryl-2-isopropylpyrazolo[1,5-a]pyridine]", "values": [{"measurement": "enhancement of morphine analgesia, tail and paw withdrawal latencies", "setting": "Sprague-Dawley rats; ibudilast 7.5 mg/kg i.p. 30 min prior to morphine 4 mg/kg s.c., high and low intensity Hargreaves, vs vehicle + morphine", "result": "significantly enhanced; also recorded: potentiated analgesia"}, {"measurement": "enhancement of oxycodone analgesia, tail and paw withdrawal latencies", "setting": "Sprague-Dawley rats; ibudilast 7.5 mg/kg i.p. 30 min prior to oxycodone 4 mg/kg s.c., high and low intensity Hargreaves, vs vehicle + oxycodone", "result": "significantly enhanced; also recorded: potentiated analgesia"}, {"measurement": "area under the analgesia curve, co-administration with morphine", "setting": "Sprague-Dawley rats; ibudilast 7.5 mg/kg i.p. + morphine 4 mg/kg s.c., tail and hind paw, vs vehicle + morphine", "result": "significant increase in analgesia"}, {"measurement": "area under the analgesia curve, co-administration with oxycodone", "setting": "Sprague-Dawley rats; ibudilast 7.5 mg/kg i.p. + oxycodone 4 mg/kg s.c., tail and hind paw, vs vehicle + oxycodone", "result": "significant increase in analgesia"}, {"measurement": "tail and paw withdrawal latencies (% maximal possible effect), ibudilast alone", "setting": "Sprague-Dawley rats; ibudilast 7.5 mg/kg i.p. alone (followed by s.c. saline), high and low intensity Hargreaves, vs vehicle 35% PEG", "result": "no significant influence; also recorded: little to no effect"}, {"measurement": "tail-flick latency, co-administration of oral ibudilast and s.c. morphine", "setting": "Sprague-Dawley (CD) rats; ibudilast 50 mg/kg po + morphine 1.2 mg/kg s.c. concurrently, vs either therapeutic alone", "result": "substantial, greater-than-additive increase; also recorded: potentiates morphine-induced analgesia"}, {"measurement": "antinociceptive activity (tail-flick latency), administered alone", "setting": "Sprague-Dawley (CD) rats", "result": "weak antinociceptive activity"}]}]}
